{"source": "paper PMC7272617", "about": "(Scientific Reports, 2020)", "key": {"P. aeruginosa ATCC 27853 [1]": {"tested_on": "P. aeruginosa ATCC 27853", "experiment": "Transmission electron microscopy (TEM)", "assay_type": "cell-based, Pseudomonas aeruginosa", "settings": "0.5 × MIC, 2 h; result in words", "experimental": "The bacterial cells were treated and prepared with the same conditions as previously described in SEM[8]. The bacterial pellets were washed twice with PBS and post-fixed with 1% osmium tetroxide in PBS for 2 h, after overnight fixing with 2.5% glutaraldehyde. The fixed bacterial cells were washed twice with PBS, followed by dehydration for 15 min in a graded ethanol series (50%, 70%, 90%, and 100%). After placing in absolute acetone for 20 min, these samples were transferred to a mixture of absolute acetone and epoxy resin (1:1 and 1:3) for 1 h each, followed by transfer to pure epoxy resin and held overnight. Ultrathin sections were cut with a glass knife on an ultramicrotome, and post-stained with uranyl acetate and lead citrate. Specimens were observed using a transmission electron microscope (Hitachi HT7700, Japan)."}, "[2]": {"tested_on": "MDR P. aeruginosa isolates", "experiment": "MIC against all tested MDR P. aeruginosa isolates", "assay_type": "cell-based, Pseudomonas aeruginosa", "settings": "times higher than ciprofloxacin"}, "[3]": {"tested_on": "Escherichia coli O157:H7 MT strain", "settings": "E. coli O157:H7 MT strain; MHB, 37 °C, 24 h"}, "[4]": {"tested_on": "L929 mouse fibroblast cells", "experiment": "Cytotoxicity, MTT viability assay", "settings": "3.91 µg/ml, 24 h"}, "P. aeruginosa ATCC 27853 [5]": {"tested_on": "P. aeruginosa ATCC 27853", "experiment": "Salt sensitivity: MIC in the presence of physiological salts", "assay_type": "cell-based, Pseudomonas aeruginosa", "experimental": "The antimicrobial activity of the peptides was determined against both Gram-positive and -negative bacteria including 14 MDR P. aeruginosa clinical isolates from Bhumibol Adulyadej Hospital (Tables 1 and 3). The minimal inhibitory concentration (MIC) of each peptide was measured according to a modification of the National Committee for Clinical Laboratory Standards (NCCLS) broth microdilution method as previously described. Briefly, bacterial cells in mid-log phase were cultured in Müeller-Hinton broth (MHB) and then diluted to 10^7 CFU/ml. Fifty microliters of 2-fold serially diluted peptides, with concentrations ranging from 0.98 to 250 μg/ml in 0.01% (vol/vol) acetic acid and 0.2% (wt/vol) bovine serum albumin (BSA, Sigma), were added to each well of sterile 96-well plates, followed by 50 μl of bacterial solution. Plates were incubated at 37 °C for 24 h, and MICs were defined as the lowest concentration of peptide that prevented visible turbidity. Cultures without peptides and uninoculated MHB were employed as positive and negative controls, respectively. Colony count assays were performed to determine the minimal bactericidal concentrations (MBCs) for determination of time-killing activity. As previously described, a 50 μl aliquot from each non-turbid well identified in the MIC determination experiment was spread on agar plates. MBCs were defined as the lowest concentration of peptides where no colony growth was observed on agar plates after 24 h incubation at 37 °C.\nTo test the effect of salts on the antibacterial activity of PA-13, the mid-logarithmic phase (10^7 CFU/ml) of P. aeruginosa ATCC 27853 was exposed to different concentrations of PA-13 in the presence of different physiological salts: 150 mM NaCl; 4.5 mM KCl; 1 mM MgCl2; 6 µM NH4Cl; 8 µM ZnCl2; 4 µM FeCl3; […][22]. After these treatments, the MICs were determined as described above."}, "[6]": {"tested_on": "MDR P. aeruginosa clinical isolate No.13", "settings": "MDR clinical isolate No.13, 24 h"}, "[7]": {"tested_on": "MDR P. aeruginosa clinical isolate No.10", "settings": "MDR clinical isolate No.10, 24 h"}, "[8]": {"tested_on": "Listeria monocytogenes 10403 s", "settings": "10403 s, 24 h"}, "[9]": {"tested_on": "MDR P. aeruginosa clinical isolate No.11", "settings": "MDR clinical isolate No.11, 24 h"}, "[10]": {"tested_on": "MDR P. aeruginosa clinical isolate No.9", "settings": "MDR clinical isolate No.9, 24 h"}, "P. aeruginosa ATCC 27853 [11]": {"tested_on": "P. aeruginosa ATCC 27853", "settings": "ATCC 27853, 24 h"}, "[12]": {"tested_on": "MDR P. aeruginosa clinical isolate No.6", "settings": "MDR clinical isolate No.6, 24 h"}, "[13]": {"tested_on": "MDR P. aeruginosa clinical isolate No.5", "settings": "MDR clinical isolate No.5, 24 h"}, "P. aeruginosa ATCC 27853 [14]": {"tested_on": "P. aeruginosa ATCC 27853", "experiment": "Membrane-penetrating activity of TAMRA-labelled peptide, flow cytometry", "assay_type": "cell-based, Pseudomonas aeruginosa", "settings": "1 × MIC, measured with TAMRA-labelled PA-13", "experimental": "To clarify whether bacterial membrane permeabilization resulted from peptide uptake, the interaction of TAMRA-labelled PA-13 with the membrane of bacteria cells was investigated by flow cytometry. […] After incubation, unbound labelled peptide was removed by washing with PBS. Then the fluorescence signal from treated cells was determined by flow cytometry (CytoFlex, Beckman Coulter)."}, "[15]": {"tested_on": "MDR P. aeruginosa clinical isolate No.1"}, "[16]": {"tested_on": "human red blood cells (hRBCs)", "experiment": "Hemolytic activity, hemoglobin release", "experimental": "Hemolytic activity of the peptides was assayed against human red blood cells (hRBCs) by measuring the amount of hemoglobin released after treatment. The hRBCs, freshly collected from a healthy volunteer in polycarbonate tubes containing heparin, were washed three times in sterile phosphate buffered saline (PBS) and centrifuged at 2,000 × g for 5 min or until the supernatant became clear. […] After 1 h of incubation at 37 °C, intact hRBCs were pelleted by centrifugation at 2,000 × g for 10 min. The supernatant was transferred to a new 96-well plate and the release of hemoglobin was monitored by measurement of absorbance at 405 nm using a Multiskan FC microplate reader. The hRBCs in PBS only (ODBlank) and in 0.1% Triton X-100 (ODTriton X-100) were employed as negative (0% hemolysis) and positive (100% hemolysis) controls, respectively. The percentage of hemolysis was calculated according to the following equation: %Hemolysis=(ODSample−ABlank)/(ODTritonX−100−ODBlank)×100"}}, "note": "Where a SMILES comes first, the peptide text is derived from it."}
{"smiles": "CC[C@H](C)[C@H](NC(=O)[C@H](CCCNC(=N)N)NC(=O)[C@H](CCCCN)NC(=O)[C@H](C)NC(=O)[C@@H](NC(=O)[C@@H](N)CCCCN)[C@@H](C)CC)C(=O)N[C@@H](Cc1c[nH]c2ccccc12)C(=O)N[C@@H](CCCCN)C(=O)N[C@H](C(=O)N[C@@H](CC(C)C)C(=O)N[C@@H](CCCNC(=N)N)C(=O)N[C@@H](CCCNC(=N)N)C(=O)N[C@@H](CCCNC(=N)N)C(N)=O)[C@@H](C)CC", "note": "[PA-13] (H-KIAKRIWKILRRR-NH2; N-terminus assumed)", "values": [{"measurement": "membrane integrity and intracellular alterations (TEM)", "setting": "P. aeruginosa ATCC 27853 [1]", "result": "disrupted cell membrane with visible pores and leakage of cellular contents"}, {"measurement": "antimicrobial activity relative to ciprofloxacin", "setting": "[2]", "result": "8-64 times"}, {"measurement": "MIC", "setting": "[3]", "result": 31.25, "unit": "µg/mL"}, {"measurement": "L929 cell survival at the MIC", "setting": "[4]", "result": "up to 90%"}, {"measurement": "MIC in the presence of FeCl3", "setting": "P. aeruginosa ATCC 27853 [5]; 4 µM FeCl3, unit inferred", "result": 3.91, "unit": "µg/mL"}, {"measurement": "MIC in the presence of NH4Cl", "setting": "P. aeruginosa ATCC 27853 [5]; 6 µM NH4Cl, unit inferred", "result": 3.91, "unit": "µg/mL"}, {"measurement": "MIC in the presence of ZnCl2", "setting": "P. aeruginosa ATCC 27853 [5]; 8 µM ZnCl2, unit inferred", "result": 3.91, "unit": "µg/mL"}, {"measurement": "MIC in the presence of MgCl2", "setting": "P. aeruginosa ATCC 27853 [5]; 1 mM MgCl2, unit inferred", "result": 31.2, "unit": "µg/mL"}, {"measurement": "increase of MIC in the presence of K+", "setting": "P. aeruginosa ATCC 27853 [5]; 4.5 mM KCl versus control", "result": 2, "unit": "fold"}, {"measurement": "MIC in the presence of KCl", "setting": "P. aeruginosa ATCC 27853 [5]; 4.5 mM KCl, unit inferred", "result": 7.81, "unit": "µg/mL"}, {"measurement": "MIC in the presence of NaCl", "setting": "P. aeruginosa ATCC 27853 [5]; 150 mM NaCl, unit inferred", "result": 31.2, "unit": "µg/mL"}, {"measurement": "MIC in the presence of CaCl2", "setting": "P. aeruginosa ATCC 27853 [5]; […] CaCl2, unit inferred", "result": 3.91, "unit": "µg/mL"}, {"measurement": "MIC, control", "setting": "P. aeruginosa ATCC 27853 [5]; absence of physiological salts, unit inferred", "result": 3.91, "unit": "µg/mL"}, {"measurement": "MIC", "setting": "[6]", "result": 15.63, "unit": "µg/mL"}, {"measurement": "MIC", "setting": "[7]", "result": 7.81, "unit": "µg/mL"}, {"measurement": "MIC", "setting": "[8]", "result": 3.91, "unit": "µg/mL"}, {"measurement": "MIC", "setting": "[9]", "result": 7.81, "unit": "µg/mL"}, {"measurement": "MIC", "setting": "[10]", "result": 7.81, "unit": "µg/mL"}, {"measurement": "MBC", "setting": "P. aeruginosa ATCC 27853 [11]", "result": 7.81, "unit": "µg/mL"}, {"measurement": "MIC", "setting": "[12]", "result": 7.81, "unit": "µg/mL"}, {"measurement": "MIC", "setting": "[13]", "result": 7.81, "unit": "µg/mL"}, {"measurement": "time to binding and penetration", "setting": "P. aeruginosa ATCC 27853 [14]", "result": "≤ 5", "unit": "min"}, {"measurement": "MIC", "setting": "[15]", "result": 3.91, "unit": "µg/mL"}, {"measurement": "hemolytic activity at the MIC", "setting": "[16]", "result": "less than 2%"}]}
